Reference: US9809587B2, “Pesticidally active heterocyclic derivatives with sulphur containing substituents” (Syngenta Participations AG, priority 2014, dated 2017)

Legend:
Type in all cases: in vivo
[1] = test system: Bemisia tabaci (Cotton White Fly); test: Bemisia tabaci (cotton white fly), sprayed cotton leaf discs; settings: foliar, 144 h, application rate of 200 ppm, adult white flies on cotton leaf discs, 6 days after incubation
Protocol: Example B1: Bemisia tabaci (Cotton White Fly)
Cotton leaf discs were placed on agar in 24-well microtiter plates and sprayed with aqueous test solutions prepared from 10′000 ppm DMSO stock solutions. After drying the leaf discs were infested with adult white flies. The samples were checked for mortality 6 days after incubation.

[2] = test system: Euschistus heros (Neotropical Brown Stink Bug); test: Euschistus heros (neotropical brown stink bug), sprayed soybean leaf; settings: 120 h, application rate of 200 ppm, N-2 nymphs on soybean leaf, 5 days after infestation
Protocol: Example B3: Euschistus heros (Neotropical Brown Stink Bug)
Soybean leaf on agar in 24-well microtiter plates were sprayed with aqueous test solutions prepared from 10′000 ppm DMSO stock solutions. After drying the leaf were infested with N-2 nymphs. The samples were assessed for mortality in comparison to untreated samples 5 days after infestation.

[3] = test system: Diabrotica balteata (Corn Root Worm); test: Diabrotica balteata (corn root worm), sprayed maize sprouts; settings: 96 h, application rate of 200 ppm, L2 larvae on maize sprouts, 4 days after infestation
Protocol: Example B2: Diabrotica balteata (Corn Root Worm)
Maize sprouts, placed on an agar layer in 24-well microtiter plates were treated with aqueous test solutions prepared from 10′000 ppm DMSO stock solutions by spraying. After drying, the plates were infested with L2 larvae (6 to 10 per well). The samples were assessed for mortality and growth inhibition in comparison to untreated samples 4 days after infestation.

[4] = test system: Spodoptera littoralis (Egyqptian Cotton Leaf Worm); test: Spodoptera littoralis (Egyptian cotton leaf worm), compound in agar taken up by lettuce roots; settings: 144 h, test rate of 12.5 ppm, uptake by lettuce roots from agar, 6 days after infestation, read-out: effect in at least one of the three categories (mortality, anti-feedancy, or growth inhibition)
Description: Example B8: Spodoptera littoralis (Egyqptian Cotton Leaf Worm)
Test compounds were applied by pipette from 10′000 ppm DMSO stock solutions into 24-well plates and mixed with agar. Lettuce seeds were placed on the agar and the multi well plate was closed by another plate which contains also agar. After 7 days the roots have absorbed the compound and the lettuce has grown into the lid plate. The lettuce leafs were now cut off into the lid plate. Spodoptera eggs were pipetted through a plastic stencil on a humid gel blotting paper and the plate closed with it. The samples were assessed for mortality, anti-feedant effect and growth inhibition in comparison to untreated samples 6 days after infestation.
The following compounds gave an effect of at least 80% in at least one of the three categories (mortality, anti-feedancy, or growth inhibition) at a test rate of 12.5 ppm: […]

[5] = test system: Plutella xylostella (Diamond Back Moth); test: Plutella xylostella (diamond back moth), treated artificial diet; settings: 120 h, application rate of 200 ppm, L2 larvae on artificial diet, 5 days after infestation, read-out: effect in at least one of the two categories (mortality or growth inhibition)
Protocol: Example B6: Plutella xylostella (Diamond Back Moth)
24-well microtiter plates with artificial diet were treated with aqueous test solutions prepared from 10′000 ppm DMSO stock solutions by pipetting. After drying, the plates were infested with L2 larvae (10 to 15 per well). The samples were assessed for mortality and growth inhibition in comparison to untreated samples 5 days after infestation.
The following compounds gave an effect of at least 80% in at least one of the two categories (mortality or growth inhibition) at an application rate of 200 ppm: […]

[6] = test system: Myzus persicae (Green Peach Aphid); test: Myzus persicae (green peach aphid), sprayed sunflower leaf discs; settings: foliar, 144 h, application rate of 200 ppm, mixed ages on sunflower leaf discs, 6 days after infestation
Protocol: Example B4: Myzus persicae (Green Peach Aphid)
Sunflower leaf discs were placed on agar in a 24-well microtiter plate and sprayed with aqueous test solutions prepared from 10′000 ppm DMSO stock solutions. After drying, the leaf discs were infested with an aphid population of mixed ages. The samples were assessed for mortality 6 days after infestation.

[7] = test system: Spodoptera littoralis (Egyqptian Cotton Leaf Worm); test: Spodoptera littoralis (Egyptian cotton leaf worm), sprayed cotton leaf discs; settings: foliar, 72 h, application rate of 200 ppm, L1 larvae on cotton leaf discs, 3 days after infestation
Protocol: Example B7: Spodoptera littoralis (Egyqptian Cotton Leaf Worm)
Cotton leaf discs were placed on agar in 24-well microtiter plates and sprayed with aqueous test solutions prepared from 10′000 ppm DMSO stock solutions. After drying the leaf discs were infested with five L1 larvae. The samples were assessed for mortality, anti-feedant effect, and growth inhibition in comparison to untreated samples 3 days after infestation. Control of Spodoptera littoralis by a test sample is when at least one of mortality, anti-feedant effect, and growth inhibition is higher than the untreated sample.

[8] = test system: Myzus persicae (Green Peach Aphid); test: Myzus persicae (green peach aphid), roots of pea seedlings in test solution; settings: 144 h, test rate of 24 ppm, roots of infested pea seedlings in test solution, 6 days
Protocol: Example B5: Myzus persicae (Green Peach Aphid)
Roots of pea seedlings infested with an aphid population of mixed ages were placed directly in the aqueous test solutions prepared from 10′000 DMSO stock solutions. The samples were assessed for mortality 6 days after placing seedlings in test solutions.

CCS(=O)(=O)c1cc(-c2cnc(Cl)nc2)cnc1-c1nc2cc(C(F)(F)F)ncc2n1C [Compound P10]
≥ 80%: mortality at 200 ppm [1]

CCS(=O)(=O)c1cc(-c2ncc(Cl)cc2Cl)cnc1-c1nc2cc(C(F)(F)F)ncc2n1C [Compound P44]
≥ 80%: mortality at 200 ppm [2] | mortality at 200 ppm [3] | percent control (mortality, anti-feedancy or growth inhibition) at 12.5 ppm [4] | percent effect (mortality or growth inhibition) at 200 ppm [5] | mortality at 200 ppm [6] | percent control (mortality, anti-feedant effect or growth inhibition) at 200 ppm [7]

CCS(=O)(=O)c1cc(-c2cncc(C)c2)cnc1-c1nc2cc(C(F)(F)F)ncc2n1C [Compound P45]
≥ 80%: mortality at 200 ppm [2] | mortality at 200 ppm [3] | percent effect (mortality or growth inhibition) at 200 ppm [5] | mortality at 200 ppm [6] | percent control (mortality, anti-feedant effect or growth inhibition) at 200 ppm [7] | mortality at 200 ppm [1]

CCS(=O)(=O)c1cc(-c2ccnc(C(F)(F)F)c2)cnc1-c1nc2cc(C(F)(F)F)ncc2n1C [Compound P46]
≥ 80%: mortality at 200 ppm [2] | mortality at 200 ppm [3] | percent control (mortality, anti-feedancy or growth inhibition) at 12.5 ppm [4] | percent effect (mortality or growth inhibition) at 200 ppm [5] | mortality at 200 ppm [6] | percent control (mortality, anti-feedant effect or growth inhibition) at 200 ppm [7] | mortality at 200 ppm [1]

CCS(=O)(=O)c1cc(-c2ncccc2NC(=O)C(F)(F)F)cnc1-c1nc2cc(C(F)(F)F)ncc2n1C [Compound P49]
≥ 80%: mortality at 200 ppm [2] | mortality at 200 ppm [6] | mortality at 24 ppm [8]

CCS(=O)(=O)c1cc(-c2ncccc2C)cnc1-c1nc2cc(C(F)(F)F)ncc2n1C [Compound P50]
≥ 80%: mortality at 200 ppm [2] | mortality at 200 ppm [3] | percent control (mortality, anti-feedancy or growth inhibition) at 12.5 ppm [4] | percent effect (mortality or growth inhibition) at 200 ppm [5] | mortality at 200 ppm [6] | percent control (mortality, anti-feedant effect or growth inhibition) at 200 ppm [7]

CCS(=O)(=O)c1cc(-c2ncccc2C(F)(F)F)cnc1-c1nc2cc(C(F)(F)F)ncc2n1C [Compound P52]
≥ 80%: mortality at 200 ppm [2] | mortality at 200 ppm [3] | percent control (mortality, anti-feedancy or growth inhibition) at 12.5 ppm [4] | percent effect (mortality or growth inhibition) at 200 ppm [5] | mortality at 200 ppm [6] | percent control (mortality, anti-feedant effect or growth inhibition) at 200 ppm [7]

CCS(=O)(=O)c1cc(-c2ncc(C(F)(F)F)cc2F)cnc1-c1nc2cc(C(F)(F)F)ncc2n1C [Compound P54]
≥ 80%: mortality at 200 ppm [2] | mortality at 200 ppm [3] | percent control (mortality, anti-feedancy or growth inhibition) at 12.5 ppm [4] | percent effect (mortality or growth inhibition) at 200 ppm [5] | mortality at 200 ppm [6] | percent control (mortality, anti-feedant effect or growth inhibition) at 200 ppm [7]

CCS(=O)(=O)c1cc(-c2cc(C)ccn2)cnc1-c1nc2cc(C(F)(F)F)ncc2n1C [Compound P57]
≥ 80%: mortality at 200 ppm [2] | percent control (mortality, anti-feedancy or growth inhibition) at 12.5 ppm [4] | percent effect (mortality or growth inhibition) at 200 ppm [5] | mortality at 200 ppm [6] | percent control (mortality, anti-feedant effect or growth inhibition) at 200 ppm [7]

CCS(=O)(=O)c1cc(-c2cccc(Cl)n2)cnc1-c1nc2cc(C(F)(F)F)ncc2n1C [Compound P59]
≥ 80%: mortality at 200 ppm [2] | mortality at 200 ppm [3] | percent control (mortality, anti-feedancy or growth inhibition) at 12.5 ppm [4] | percent effect (mortality or growth inhibition) at 200 ppm [5] | mortality at 200 ppm [6] | percent control (mortality, anti-feedant effect or growth inhibition) at 200 ppm [7] | mortality at 200 ppm [1]

CCS(=O)(=O)c1cc(-c2ccc(C#N)nc2)cnc1-c1nc2cc(C(F)(F)F)ncc2n1C [Compound P65]
≥ 80%: mortality at 200 ppm [2] | mortality at 200 ppm [3] | percent effect (mortality or growth inhibition) at 200 ppm [5] | mortality at 200 ppm [6] | percent control (mortality, anti-feedant effect or growth inhibition) at 200 ppm [7]

CCS(=O)(=O)c1cc(-c2cncc(C(F)(F)F)c2)cnc1-c1nc2cc(C(F)(F)F)ncc2n1C [Compound P66]
≥ 80%: mortality at 200 ppm [2] | mortality at 200 ppm [3] | percent effect (mortality or growth inhibition) at 200 ppm [5] | mortality at 200 ppm [6] | percent control (mortality, anti-feedant effect or growth inhibition) at 200 ppm [7] | mortality at 200 ppm [1]

CCS(=O)(=O)c1cc(-c2cccc3c2OC(F)(F)O3)cnc1-c1nc2cc(C(F)(F)F)ncc2n1C [Compound P72]
≥ 80%: mortality at 200 ppm [2] | mortality at 200 ppm [3] | percent control (mortality, anti-feedancy or growth inhibition) at 12.5 ppm [4] | percent effect (mortality or growth inhibition) at 200 ppm [5] | mortality at 200 ppm [6] | percent control (mortality, anti-feedant effect or growth inhibition) at 200 ppm [7]

CCS(=O)(=O)c1cc(-c2ccnc(Cl)c2)cnc1-c1nc2cc(C(F)(F)F)ncc2n1C [Compound P77]
≥ 80%: mortality at 200 ppm [2] | mortality at 200 ppm [3] | percent control (mortality, anti-feedancy or growth inhibition) at 12.5 ppm [4] | percent effect (mortality or growth inhibition) at 200 ppm [5] | mortality at 200 ppm [6] | percent control (mortality, anti-feedant effect or growth inhibition) at 200 ppm [7] | mortality at 200 ppm [1]

CCS(=O)(=O)c1cc(-c2cccnc2)cnc1-c1nc2cc(C(F)(F)F)ncc2n1C [Compound P80]
≥ 80%: percent effect (mortality or growth inhibition) at 200 ppm [5] | mortality at 200 ppm [6] | percent control (mortality, anti-feedant effect or growth inhibition) at 200 ppm [7] | mortality at 200 ppm [1]

CCS(=O)(=O)c1cc(-c2ccncc2)cnc1-c1nc2cc(C(F)(F)F)ncc2n1C [Compound P81]
≥ 80%: mortality at 200 ppm [2] | percent effect (mortality or growth inhibition) at 200 ppm [5] | mortality at 200 ppm [6] | mortality at 200 ppm [1]

CCS(=O)(=O)c1cc(-c2ccsc2)cnc1-c1nc2cc(C(F)(F)F)ncc2n1C [Compound P82]
≥ 80%: mortality at 200 ppm [3] | percent control (mortality, anti-feedancy or growth inhibition) at 12.5 ppm [4] | percent effect (mortality or growth inhibition) at 200 ppm [5] | mortality at 200 ppm [6] | percent control (mortality, anti-feedant effect or growth inhibition) at 200 ppm [7]

CCS(=O)(=O)c1cc(-n2cnc(C(F)(F)F)c2)cnc1-c1nc2cc(C(F)(F)F)ncc2n1C [Compound P87]
≥ 80%: mortality at 200 ppm [3] | mortality at 200 ppm [6] | mortality at 24 ppm [8]

CCS(=O)(=O)c1cc(-c2cccc(OC)n2)cnc1-c1nc2cc(C(F)(F)F)ncc2n1C [Compound P95]
≥ 80%: mortality at 200 ppm [2] | mortality at 200 ppm [3] | percent effect (mortality or growth inhibition) at 200 ppm [5] | mortality at 200 ppm [6] | percent control (mortality, anti-feedant effect or growth inhibition) at 200 ppm [7]

CCS(=O)(=O)c1cc(-n2ccc(C#N)n2)cnc1-c1nc2cc(C(F)(F)F)ncc2n1C [Compound P98]
≥ 80%: mortality at 200 ppm [2] | mortality at 200 ppm [3] | percent effect (mortality or growth inhibition) at 200 ppm [5] | mortality at 200 ppm [6] | percent control (mortality, anti-feedant effect or growth inhibition) at 200 ppm [7]

CCS(=O)(=O)c1cc(-c2nccc(C)n2)cnc1-c1nc2cc(C(F)(F)F)ncc2n1C [Compound P103]
≥ 80%: mortality at 200 ppm [2] | mortality at 200 ppm [3] | percent control (mortality, anti-feedancy or growth inhibition) at 12.5 ppm [4] | percent effect (mortality or growth inhibition) at 200 ppm [5] | mortality at 200 ppm [6] | percent control (mortality, anti-feedant effect or growth inhibition) at 200 ppm [7] | mortality at 200 ppm [1]

CCS(=O)(=O)c1cc(-c2ccnc(Cl)n2)cnc1-c1nc2cc(C(F)(F)F)ncc2n1C [Compound P105]
≥ 80%: mortality at 200 ppm [3] | percent control (mortality, anti-feedancy or growth inhibition) at 12.5 ppm [4] | percent effect (mortality or growth inhibition) at 200 ppm [5] | mortality at 200 ppm [6] | percent control (mortality, anti-feedant effect or growth inhibition) at 200 ppm [7]
